Assay results reported in patent publication US10533032B2, “Crystalline form of benzylbenzene SGLT2 inhibitor” (THERACOS SUB, LLC, priority 2010, dated 2020).
Where “and” joins values, the source holds several entries; their conditions need not be identical. Identical values can stand only once.

Experiments:
[1] = format: physicochemical
Text: The crystalline compound of the present invention is also characterized by the unit cell data substantially in accordance with FIG. 7. Thermal gravimetric analysis (TGA) can also be used to characterize the crystalline compound of the present invention.

[2] = Hygroscopicity test of crystalline compound 8 powder in desiccators over saturated salt solutions (weight increase, appearance); format: physicochemical; conditions: for Weight Increase, Average: average of 3 samples; for Weight Increase: individual samples 1-3, listed as crystal compound 8
[3] = as above; format: physicochemical; conditions: for Weight Increase: individual samples 1-3, listed as crystal compound 8
Description: The tendency toward hygroscopicity of crystalline compound 8 in powder form was tested at 75% and 92.5% relative humidity at 25° C. for up to 10 days. Reagents included: (1) water: in house, MilliQ, 18.2MΩ; (2) NaCl: AR grade; (3) KNO3: AR grade; (4) saturated NaC solution with extra NaCl solid for 25 OC/75% RH control; and (5) saturated KNO3 solution with extra KNO3 solid for 25 OC/92.5% RH control. Equipment used included (1) desiccators, 240 mm ID; and (2) weighing bottles with lids: 50 mm ID×30 mm height. The saturated salt solutions and solids were transferred into individual desiccators, and equilibrated at 25° C. at least overnight to reach the desired relative humidity readings. Four weighing bottles were placed into each desiccator, and equilibrated overnight. The empty weighing bottles were weighed and the tare weights recorded (W1). 0.5 g of crystalline compound 8 was added into three weighing bottles in each desiccator to form a thin layer with thickness of 1-2 mm. The sample weight in each bottle (W2) was recorded. One empty weighing bottle was used for blank calibration. The bottles were left in each desiccator with lids open. The lids were closed and each bottle accurately weighed on days 1, 5 and 10 (W3). The bottles were returned to each desiccator with lids open immediately after weighing. The following formula was used to calculate the weight increase: [formula] WB=the weight increase of empty weighing bottle.

OC[C@H]1O[C@@H](c2ccc(Cl)c(Cc3ccc(OCCOC4CC4)cc3)c2)[C@H](O)[C@@H](O)[C@@H]1O [crystalline compound 8, (2S,3R,4R,5S,6R)-2-(4-chloro-3-(4-(2-cyclopropoxyethoxy)benzyl)phenyl)-6-(hydroxymethyl)tetrahydro-2H-pyran-3,4,5-triol]
thermal stability (TGA) [1]: above 200 °C
Weight Increase, Average ([2]; 25° C./75% RH, 5 days): 0.1541%
Weight Increase, Average ([2]; 25° C./75% RH, 10 days): 0.2593%
Appearance ([2]; 25° C./75% RH, after 1 day): White powder
Weight Increase, Average ([2]; 25° C./92.5% RH, 1 day): 0.119%
Weight Increase ([2]; 25° C./92.5% RH, 1 day): 0.05362% and 0.1036% and 0.1998%
Weight Increase, Average ([2]; 25° C./92.5% RH, 5 days): 0.1627%
Weight Increase ([2]; 25° C./92.5% RH, 5 days): 0.0417% and 0.2071% and 0.2394%
Weight Increase, Average ([2]; 25° C./92.5% RH, 10 days): 0.2295%
Weight Increase ([2]; 25° C./92.5% RH, 10 days): 0.2601% and 0.1633% and 0.2651%
Appearance ([2]; 25° C./92.5% RH, after 1 day): White powder
Appearance ([2]; 25° C./92.5% RH, after 5 days): White powder
Appearance ([2]; 25° C./92.5% RH, after 10 days): White powder
Weight Increase, Average ([3]; 25° C./75% RH, 1 day, average of 3 samples): 0.2447%
Weight Increase ([3]; 25° C./75% RH, 1 day): 0.3291% and 0.235% and 0.1698%
Weight Increase ([3]; 25° C./75% RH, 5 days): 0.1051% and 0.1995% and 0.1578%
Weight Increase ([3]; 25° C./75% RH, 10 days): 0.3509% and 0.2311% and 0.1957%
Appearance ([3]; 25° C./75% RH, after 5 days): White powder
Appearance ([3]; 25° C./75% RH, after 10 days): White powder
hygroscopicity ([3]; powder form, at the study conditions (75% and 92.5% RH, 25° C., up to 10 days)): low hygroscopicity
weight increases ([3]; powder samples at 75% and 92.5% relative humidity at 25° C. for 10 days): below 0.26%
